Target: T1, LlFpg/DNA complex C2 (Lactococcus lactis subsp. cremoris, UniProt P42371)
T1 construct: made in house; host or cells: E. coli BH540 (fpg defective)
T1 sequence (P42371 2-273 limits assumed): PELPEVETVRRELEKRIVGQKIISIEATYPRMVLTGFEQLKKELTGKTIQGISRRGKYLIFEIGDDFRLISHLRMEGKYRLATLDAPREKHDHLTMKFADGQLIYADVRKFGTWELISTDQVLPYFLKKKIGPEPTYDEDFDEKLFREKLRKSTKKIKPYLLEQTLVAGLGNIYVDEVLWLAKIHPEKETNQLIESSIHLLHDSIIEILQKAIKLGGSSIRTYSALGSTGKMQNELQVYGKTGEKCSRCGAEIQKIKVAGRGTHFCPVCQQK
Assay: EMSA, Fpg DNA binding to 14-mer [THF:C] duplex, non-specific complex C2 (Fpg/DNA 2/1)
Details: for effect on stability of preformed complex C2 in the presence of TCEP: [1/1] molar ratio TCEP/compound (1 mM each), Figure S6; for number of TXn equivalents per one protein equivalent for 50% inhibition of DNA binding activity, C2: value in parentheses, 10 nM Fpg
Source text: To complement this study, we examined the effect of TXn on the binding of Fpg to a short DNA duplex containing a tetrahydrofuran (THF), a non-cleavable AP site analog. The enzyme specifically recognizes THF and forms a stable abortive complex with DNA [18, 34, 35, 36]. […] A representative titration experiment (with and without TCEP) of the 14-mer [THF:C] Fpg formed two stable complexes with this short DNA probe that were easily observed by EMSA: a high-affinity complex C1 corresponding to the lesion recognition complex (LRC), with nanomolar affinity, and a complex C2 only observed at higher Fpg concentrations. C2 results in C1 titration by a second Fpg molecule. This finding illustrates that the crystal structure of Fpg bound to 8-oxoG-carbanucleotide-containing DNA [38] (Figure S5). The stability of each preformed complex was then examined by EMSA in the presence of 2TX or TXn. […] The enzyme inactivation mediated by 2TX through ZnF oxidation that directly affects the DNA binding properties of the enzyme is also in agreement with this last observation.
The inhibitor concentrations that induced the loss of the half-maximal binding (IC50app^B) were determined from these curves and are reported in Table 1. IC50app^B compared well with IC50app^A. As observed above for the enzyme activity, strong reducers, such as TCEP, abolished the negative effects of 2TX and TXn on Fpg/DNA complex stability and formation. These findings again indicate that inhibition by thio-compounds essentially relies on the oxidation of the Fpg ZnF (for an example, see experiment with TX19, Figure S4). […] This troubling and unexpected observation led us to evaluate this effect with the TXn small library compounds. To prevent a side effect due to a possible partial reduction by TCEP, we performed EMSA in the presence of a 6.7-fold molar excess of TCEP with respect to 2TX and TXn after complex formation (Figure 3).
Figure 3 Impact of TXn on the non-specific Fpg/DNA complex C2 stability in highly reducing conditions. EMSA was performed as described in the ‘Material & Methods’, except TCEP was added at a 2 mM final concentration in each binding assay. (a) Representative experiment at 0.3 mM 2TX and more efficient TXn; (b) Dose-response with the best TXn. Upper panel: Representative EMSA experiment with TX10. Lower panel: Dose-response curves with the indicated TXn.
The DNA binding activity was measured using EMSA [37]. Briefly, 0.1 nM of the 5′-labeled 14-mer [THF:C] (see above) was incubated with the enzyme at 4 °C for 30 min in 25 mM HEPES/NaOH (pH 7.5), 150 mM NaCl, 5% glycerol, 0.1 mg/mL BSA and 8% DMSO. The incubation mixture was then loaded onto a native 10% polyacrylamide gel (Acryl/Bis 19/1) and electrophoresed at 25 V/cm for 90 min at 4 °C. After electrophoresis, the gels were dried and exposed overnight for autoradiography using a Typhoon imager and quantified with ImageQuant software. To evaluate the inhibitor effect of 2TX/TXn on the DNA binding activity of each Fpg/Nei enzyme, we first determined the experimental conditions required to bind 50% of the DNA probes without an inhibitor in the presence of 8% DMSO (limiting enzyme concentration). Under these conditions, we obtained the half-maximal DNA binding 0.25, 7 and 5 nM of Fpg, hNeil1 and mvNei1. We used this limited enzyme concentrations to evaluate the inhibitor effect of 2TX/TXn on the enzyme DNA binding activity. This effect was determined by the addition of the thio-compound in the pre-equilibrium mixture of the enzyme and DNA probe (30 min) and incubated for an additional 30 min at 4 °C. For the best inhibitors of Fpg, a dose-response curve was established from at least three independent experiments and the IC50 was determined (IC50^B, Table 1). […]
Rieux et al. Thiopurine derivative-induced Fpg/Nei DNA glycosylase inhibition:
structural, dynamic and functional insights
Figure S6. […]

SMILES | effect on stability of preformed complex C2 in the presence of TCEP | number of TXn equivalents per one protein equivalent for 50% inhibition of DNA binding activity, C2
FC(F)(F)c1nc(S)c2nc[nH]c2n1 [TX13, 2-trifluoromethyl-6-thiopurine] | strongly destabilized | NA (1.3)
O=c1[nH]c(=S)[nH]c2nc[nH]c12 [Compound 2TX, 2-thioxanthine, reference compound] | moderate effect | NA (9.7)
O=c1[nH]c2[nH]c(=S)[nH]c(=O)c2[nH]1 [TX14, 2-thio-6,8-dioxopurine] | moderate effect | NA (2.8)
O=c1[nH]c(=S)[nH]c2[nH]c(=S)[nH]c12 [TX19] | moderate effect | NA (2)
Nc1ncnc2[nH]c(S)nc12 [TX27] | strongly destabilized | NA (4)
